Test results published in patent US20130252832A1, “KRAS Variant and Tumor Biology” (Yale University, priority 2012, published 2013).

Assays:
[1] = tested on: KRAS-variant 3′UTR reporter; assay: Luciferase 3'UTR reporter expression following irinotecan exposure; assay type: cell-based
Description: (§1) The disclosure provides a method of predicting the response of a cancer cell to the combination of a chemotherapy and monoclonal antibody therapy, including detecting a mutation in let-7 complementary site LCS6 of human KRAS in a patient sample, wherein the mutation is a SNP comprising a uracil (U) or thymine (T) to guanine (G) transition at position 4 of LCS6, and wherein the presence of the mutation indicates a resistance to the combination. In certain embodiments of this method, the cancer cell is a colorectal cancer (CRC) cell. The cancer cell may be evaluated in vitro or ex vivo. […] The chemotherapy may be a cytotoxic agent. A non-limiting example of the cytotoxic agent is irinotecan.
(§2) FIG. 24B is a graph depicting the fold repression (expressed as KRAS variant/KRAS wild type) as a function of irinotecan concentration, when cancer cells are treated with irinotecan.

wild-type 3′UTR reporter = assay: as above; assay type: cell-based
Description: as §1, §2

Reporter expression following irinotecan exposure [1]: statistically-significant increase
Reporter expression following irinotecan exposure (wild-type 3′UTR reporter): no change
SMILES: CCc1c2c(nc3ccc(OC(=O)N4CCC(N5CCCCC5)CC4)cc13)-c1cc3c(c(=O)n1C2)COC(=O)[C@]3(O)CC [irinotecan]
